The target in assay [1] is T1, Protein O-GlcNAcase (Homo sapiens) (UniProt O60502).
T1 sequence (whole entry): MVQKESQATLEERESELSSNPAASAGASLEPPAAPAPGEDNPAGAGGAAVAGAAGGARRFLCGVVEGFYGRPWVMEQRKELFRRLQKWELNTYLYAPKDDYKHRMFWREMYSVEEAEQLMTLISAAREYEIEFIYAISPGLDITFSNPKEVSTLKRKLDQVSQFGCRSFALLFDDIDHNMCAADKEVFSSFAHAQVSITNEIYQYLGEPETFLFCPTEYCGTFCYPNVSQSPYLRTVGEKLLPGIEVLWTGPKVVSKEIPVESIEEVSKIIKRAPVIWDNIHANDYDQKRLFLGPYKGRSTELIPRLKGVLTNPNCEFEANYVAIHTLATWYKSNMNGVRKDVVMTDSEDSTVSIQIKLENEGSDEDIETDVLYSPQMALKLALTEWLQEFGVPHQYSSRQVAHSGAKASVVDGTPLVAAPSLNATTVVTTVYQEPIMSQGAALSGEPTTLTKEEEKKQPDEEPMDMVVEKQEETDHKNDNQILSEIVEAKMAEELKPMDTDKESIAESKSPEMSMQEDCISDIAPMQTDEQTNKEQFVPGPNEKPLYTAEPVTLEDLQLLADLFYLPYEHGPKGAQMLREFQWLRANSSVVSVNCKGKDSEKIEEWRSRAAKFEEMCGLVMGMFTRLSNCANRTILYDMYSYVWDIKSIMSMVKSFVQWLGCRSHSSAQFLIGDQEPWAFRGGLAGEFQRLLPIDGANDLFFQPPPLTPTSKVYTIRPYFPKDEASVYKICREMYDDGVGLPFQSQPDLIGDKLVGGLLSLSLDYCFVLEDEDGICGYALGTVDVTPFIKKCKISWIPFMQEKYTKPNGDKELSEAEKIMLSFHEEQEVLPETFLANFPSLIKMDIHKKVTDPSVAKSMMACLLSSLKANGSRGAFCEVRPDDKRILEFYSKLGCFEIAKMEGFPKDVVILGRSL
Description: Inhibition of recombinant human OGA expressed in Escherichia coli BL21 (DE3) at 20 uM using 4-Mu-GlcNAc as substrate measured after 30 mins by fluorescence assay relative to control.

The target in assay [2] is T2, Beta-hexosaminidase subunit beta (Homo sapiens) (UniProt P07686).
T2 sequence (whole entry): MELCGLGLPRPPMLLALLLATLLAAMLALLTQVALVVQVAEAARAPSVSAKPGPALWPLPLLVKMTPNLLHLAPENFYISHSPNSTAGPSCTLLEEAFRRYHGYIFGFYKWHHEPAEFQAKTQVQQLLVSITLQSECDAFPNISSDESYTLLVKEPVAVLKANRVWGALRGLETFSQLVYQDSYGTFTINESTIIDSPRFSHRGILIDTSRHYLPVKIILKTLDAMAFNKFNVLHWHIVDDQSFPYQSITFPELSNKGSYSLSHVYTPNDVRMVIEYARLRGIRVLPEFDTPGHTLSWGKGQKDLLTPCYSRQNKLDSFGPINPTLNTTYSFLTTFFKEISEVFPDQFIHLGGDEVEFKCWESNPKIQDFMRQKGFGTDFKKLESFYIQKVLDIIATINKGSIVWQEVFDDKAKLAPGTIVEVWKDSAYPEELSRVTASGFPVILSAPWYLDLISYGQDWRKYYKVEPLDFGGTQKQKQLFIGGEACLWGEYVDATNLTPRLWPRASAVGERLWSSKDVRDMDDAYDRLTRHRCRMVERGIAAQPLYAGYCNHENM
Nature of the assay: Inhibition of recombinant human His6-tagged HexB expressed in Pichia pastoris at 20 uM using 4-Mu-GlcNAc as substrate measured after 30 mins by fluorescence assay relative to control.

Another assay is filed under the species Homo sapiens. Description: Selectivity ratio of Ki for recombinant human His6-tagged HexB expressed in Pichia pastoris to Ki for recombinant human OGA expressed in Escherichia coli BL21 (DE3).
Assay [3] addresses T3, Beta-hexosaminidase subunit beta (Homo sapiens, UniProt P07686).
T3 sequence (P07686 whole entry): T2 sequence (whole entry)
Description: Inhibition of recombinant human His6-tagged HexB expressed in Pichia pastoris using 4-Mu-GlcNAc as substrate preincubated for 10 mins followed by substrate addition and measured after 30 mins by fluorescence assay.

The target in a further assay is T4, Protein O-GlcNAcase (Homo sapiens, UniProt O60502).
T4 sequence (O60502 whole entry): T1 sequence (whole entry)
Nature of the assay: Inhibition of recombinant human OGA expressed in Escherichia coli BL21 (DE3) using 4-Mu-GlcNAc as substrate preincubated for 10 mins followed by substrate addition and measured after 30 mins by fluorescence assay.

Assay [4] deals with T1, Protein O-GlcNAcase (Homo sapiens). Nature of the assay: Inhibition of recombinant human OGA expressed in Escherichia coli BL21 (DE3) at 20 uM using 4-Mu-GlcNAc as substrate preincubated for 10 mins followed by substrate addition and measured after 30 mins by fluorescence assay relative to control.
In assay [5] the target is T2, Beta-hexosaminidase subunit beta (Homo sapiens). Nature of the assay: Inhibition of recombinant human His6-tagged HexB expressed in Pichia pastoris at 20 uM using 4-Mu-GlcNAc as substrate preincubated for 10 mins followed by substrate addition and measured after 30 mins by fluorescence assay relative to control.

inhibition, Ratio Ki and IC50 data for two molecules are collected here from ChEMBL document CHEMBL4325931, “Modification of the Thioglycosyl-Naphthalimides as Potent and Selective Human O-GlcNAcase Inhibitors” (ACS Med Chem Lett, 2018).

Regarding `CC(=O)N[C@@H]1[C@@H](O)[C@H](O)[C@@H](CO)O[C@H]1SCCNCCCN1C(=O)c2cccc3cccc(c23)C1=O`, the figures for the inhibition in assay [1] and in assay [2] were 82.4% and 38.7%, respectively. Besides, the Ratio Ki in the assay filed under Homo sapiens was 8.
As to `CC(=O)N[C@@H]1[C@@H](O)[C@H](O)[C@@H](CO)O[C@H]1SCCNCCN1C(=O)c2cccc3c(N(C)C)ccc(c23)C1=O`, the results for the half-maximal inhibitory concentration (IC50) (in assay [3]; on Protein O-GlcNAcase) were over 100 µM and 25 µM, respectively. The results for the inhibition in assay [4] and in assay [5] were 32.6% and 0%, respectively.
